Assay results from publication PMC8875074, “Development of Bactericidal Peptides against Multidrug-Resistant Acinetobacter baumannii with Enhanced Stability and Low Toxicity” (International Journal of Molecular Sciences, 2022).
Where two headings read alike, the source gives them in different places.

Key:
[1] = system: MDR A. baumannii 1607; assay: MIC/MBC antimicrobial assay; type: cell-based; settings: Acinetobacter baumannii; MDR strain 1607; normal media; triplicate, two independent experiments
Protocol: (§1) Bacterial cells Acinetobacter baumannii 10591 and 14B0091 were obtained from BCRC Taiwan. All the MDR strains were obtained from the hospital as gifts. The antimicrobial assay was performed as per the standard protocol; 50 µL of 10^6 CFU/mL of mid-log phase bacterial suspension was treated with 50 µL of candidate peptide and meropenem (Sigma: PHR1772) incubated at 37 °C for 960~1200 min. The clear wells corresponding to the lowest concentrations are reported as the minimum inhibitory concentration (MIC). Suspensions from the clear wells were plated on Mueller–Hinton agar (MHA) plates and incubated at 37 °C overnight. The lowest concentration corresponding to no growth was recorded as the minimum bactericidal concentration (MBC). To detect the effect of human serum (H3667, Sigma Aldrich, St. Louis, MO, USA) on the peptides, the media was replaced with 50% human serum-containing media. Similarly, to detect the effect of lung surfactant (SURVANTA®, beractant, AbbVie Inc., Lake Bluff, IL, USA (25 mg/mL)) on the antimicrobial activity of the peptide, the normal media was replaced with 5% lung surfactant-containing media. To analyse the bacterial killing kinetics, after the addition of the peptide to the bacterial suspension, 10 µL of broth was diluted 1000 times, plated at 30 min intervals, and allowed to incubate for 90 min. The bacterial load is expressed as CFU/mL as a function of time.

[2] = system: MDR A. baumannii 1019; assay: MIC/MBC antimicrobial assay; type: cell-based; settings: Acinetobacter baumannii; MDR strain 1019; normal media; triplicate, two independent experiments
Protocol: as §1

[3] = system: MDR A. baumannii 3618; assay: MIC/MBC antimicrobial assay; type: cell-based; settings: Acinetobacter baumannii; MDR strain 3618; normal media; triplicate, two independent experiments
Protocol: as §1

[4] = system: MDR A. baumannii 921; assay: MIC/MBC antimicrobial assay; type: cell-based; settings: Acinetobacter baumannii; MDR strain 921; normal media; triplicate, two independent experiments
Protocol: as §1

[5] = system: MDR A. baumannii 1033; assay: MIC/MBC antimicrobial assay; type: cell-based; settings: Acinetobacter baumannii; MDR strain 1033; normal media; triplicate, two independent experiments
Protocol: as §1

[6] = system: MDR A. baumannii 2998; assay: MIC/MBC antimicrobial assay; type: cell-based; settings: Acinetobacter baumannii; MDR strain 2998; normal media; triplicate, two independent experiments
Protocol: as §1

[7] = system: MDR A. baumannii 2982; assay: MIC/MBC antimicrobial assay; type: cell-based; settings: Acinetobacter baumannii; MDR strain 2982; normal media; triplicate, two independent experiments
Protocol: as §1

[8] = system: MDR A. baumannii 2997; assay: MIC/MBC antimicrobial assay; type: cell-based; settings: Acinetobacter baumannii; MDR strain 2997; normal media; triplicate, two independent experiments
Protocol: as §1

[9] = system: MDR A. baumannii 1702; assay: MIC/MBC antimicrobial assay; type: cell-based; settings: Acinetobacter baumannii; MDR strain 1702; normal media; triplicate, two independent experiments
Protocol: as §1

[10] = system: MDR A. baumannii 2962; assay: MIC/MBC antimicrobial assay; type: cell-based; settings: Acinetobacter baumannii; MDR strain 2962; normal media; triplicate, two independent experiments
Protocol: as §1

[11] = system: MDR A. baumannii 2088; assay: MIC/MBC antimicrobial assay; type: cell-based; settings: Acinetobacter baumannii; MDR strain 2088; normal media; triplicate, two independent experiments
Protocol: as §1

[12] = system: A. baumannii (10591); assay: Induced resistance (serial passage) assay; type: cell-based, Acinetobacter baumannii; settings: 15 cycles, from subinhibitory wells
Protocol: A total of 50 µL of 10^6 CFU/mL bacterial cells were treated with different concentrations of peptide. Bacterial cells from subinhibitory wells were subcultured by passaging for 15 cycles, followed by testing their MIC values. The fold change in MIC was reported in comparison with starting MIC values.

[13] = system: A. baumannii 10591; assay: Biofilm rupture assay; type: cell-based, Acinetobacter baumannii; settings: at the lowest concentration (25 µg/mL)
Protocol: For the biofilm inhibition assay, 106 bacterial cells were treated with peptide at various concentrations in MHB media containing 0.2% glucose for 24 h at 37 °C in 96-well plates. The wells were then washed with PBS, treated with 100% methanol for 15 min, and the washes were discarded. Crystal violet solution (0.02%) was added to the dry plates and incubated for 30 min. The wells were then washed and treated with 33% acetic acid, followed by detection at 595 nm. For the biofilm rupture assay, 106 bacterial cells were grown overnight. The residual liquid was discarded, followed by washing with PBS. Next, 100 µL of peptide at different concentrations was added as estimated according to the biofilm inhibition assay.

[14] = system: A. baumannii; assay: Peptide sensitivity to temperature (MIC/MBC after heating); type: cell-based, Acinetobacter baumannii
Protocol: as §1
Here, 50 µL of 10^6 CFU/mL bacterial cells were treated with peptide previously incubated at 40, 60, 80, and 100 °C for 1 h. The peptide activity was reported as per the standard MIC and MBC protocols.

[15] = system: MDR A. baumannii 14B0091; assay: MIC/MBC antimicrobial assay; type: cell-based, Acinetobacter baumannii; settings: MDR strain 14B0091, triplicate, two independent experiments
Protocol: as §1

[16] = system: A. baumannii 10591; assay: MIC/MBC antimicrobial assay; type: cell-based, Acinetobacter baumannii
Protocol: as §1

C[C@@H](O)[C@H]1C(=O)N2C(C(=O)O)=C(S[C@@H]3CN[C@H](C(=O)N(C)C)C3)[C@H](C)[C@H]12 [Meropenem, meropenem]
25 µg/mL: MBC [2] | MIC [2]
1.56 µg/mL: MIC ([14]; Acinetobacter baumannii) | MBC ([14]; Acinetobacter baumannii, agent incubated at 40 °C for 1 h prior to the assay, triplicate, two experiments) | MBC ([14]; Acinetobacter baumannii, agent incubated at 60 °C for 1 h prior to the assay, triplicate, two experiments) | MIC ([14]; agent incubated at 60 °C for 1 h prior to the assay, triplicate, two experiments) | MBC ([16]; A. baumannii 10591 wild strain, media containing 5% lung surfactant, triplicate, two independent experiments) | MIC ([16]; Acinetobacter baumannii, 10591)
> 100 µg/mL: MBC [4] | MBC [6] | MIC [6] | MBC [7] | MIC [7] | MBC [11] | MIC [11] | MBC ([15]; Acinetobacter baumannii, media containing 50% human serum, read-out: MBC) | MIC ([15]; Acinetobacter baumannii, media containing 50% human serum, read-out: MIC)
>100 µg/mL: MBC ([15]; normal media) | MIC ([15]; normal media)
nonsignificant biofilm rupture: biofilm rupture [13]
50 µg/mL: MBC [1] | MIC [1] | MIC [5] | MBC [10] | MIC [10] | MBC ([14]; Acinetobacter baumannii, agent incubated at 100 °C for 1 h prior to the assay, triplicate, two experiments) | MIC ([14]; Acinetobacter baumannii, agent incubated at 100 °C for 1 h prior to the assay, triplicate, two experiments, read-out: MIC)
100 µg/mL: MIC [4] | MBC [5]
12.5 µg/mL: MBC [9]
3.12 µg/mL: MBC ([14]; Acinetobacter baumannii, agent incubated at 80 °C for 1 h prior to the assay, triplicate, two experiments) | MIC ([14]; Acinetobacter baumannii, agent incubated at 80 °C for 1 h prior to the assay, triplicate, two experiments, read-out: MIC)
up to 16 fold: increase in MIC versus the initial MIC value (fold) [12]
50 to 100 µg/mL: MBC [3] | MIC [3] | MBC [8] | MIC [8]
